From patent US12404241B2 (Celgene Corporation, priority 2018, dated 2025)

Molecular target: T1, AR (Homo sapiens, UniProt P10275)
T1 construct: endogenous in cells; host or cells: VCaP cells
T1 sequence (P10275 1-920): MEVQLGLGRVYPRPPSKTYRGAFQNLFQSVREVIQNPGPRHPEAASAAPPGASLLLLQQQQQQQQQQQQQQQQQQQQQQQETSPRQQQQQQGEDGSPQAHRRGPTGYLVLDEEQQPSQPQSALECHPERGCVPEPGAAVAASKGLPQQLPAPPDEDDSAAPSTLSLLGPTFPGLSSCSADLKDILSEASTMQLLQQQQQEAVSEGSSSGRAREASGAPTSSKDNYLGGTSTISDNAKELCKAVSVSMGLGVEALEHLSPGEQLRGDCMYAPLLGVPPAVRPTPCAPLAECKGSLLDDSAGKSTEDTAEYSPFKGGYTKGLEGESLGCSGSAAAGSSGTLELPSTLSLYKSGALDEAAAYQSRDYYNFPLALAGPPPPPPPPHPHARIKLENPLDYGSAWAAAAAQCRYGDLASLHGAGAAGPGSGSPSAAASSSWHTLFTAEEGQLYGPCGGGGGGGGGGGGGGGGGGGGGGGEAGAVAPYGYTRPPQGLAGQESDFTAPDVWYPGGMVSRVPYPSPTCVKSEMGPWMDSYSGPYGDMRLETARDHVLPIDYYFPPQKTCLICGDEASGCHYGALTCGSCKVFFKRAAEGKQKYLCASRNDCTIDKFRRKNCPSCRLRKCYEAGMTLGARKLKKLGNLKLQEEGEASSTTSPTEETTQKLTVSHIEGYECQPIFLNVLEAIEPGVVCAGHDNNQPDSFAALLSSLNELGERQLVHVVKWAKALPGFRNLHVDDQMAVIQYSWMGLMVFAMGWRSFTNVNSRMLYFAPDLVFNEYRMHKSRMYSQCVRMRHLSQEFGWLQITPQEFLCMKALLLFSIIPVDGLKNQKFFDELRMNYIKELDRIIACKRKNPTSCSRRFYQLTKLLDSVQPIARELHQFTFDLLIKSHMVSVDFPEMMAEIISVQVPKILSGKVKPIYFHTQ
Experiment: VCAP AR Degradation Assay
Format: cell-based
Settings: for Y (AR degradation efficiency, % of DMSO control): class symbols *; for DC50: class symbols A-C, read-out: DC50
In short: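 VCaP cells treated 24 h at 37 °C with a 10-point 1:3 series (top 5 μM final; 0.1% DMSO control). Lysate AR measured by sandwich ELISA, normalized to DMSO as percent of control; DC50, EC50 and lowest AR level (Y) from four-parameter logistic fit.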

SMILES | Y (AR degradation efficiency, % of DMSO control) | DC50
CC(C)c1cc(N2C(=S)N(c3ccc(C#N)c(Cl)c3)C(=O)C2(C)C)ccc1OCCN1C[C@@H](C)N(CC(=O)Nc2cc(C#N)cc(NC3CCC(=O)NC3=O)c2)[C@@H](C)C1 (stereo partly drawn) [Example 250, 2-((2S,6R)-4-(2-(4-(3-(3-chloro-4-cyanophenyl)-5,5-dimethyl-4-oxo-2-thioxoimidazolidin-1-yl)-2-isopropylphenoxy)ethyl)-2,6-dimethylpiperazin-1-yl)-N-(3-cyano-5-(2,6-dioxopiperidin-3-ylamino)phenyl)acetamide] | * (0<Y<=25%) | < 100 nM
CC(C)c1cc(N2C(=S)N(c3ccc(C#N)c(Cl)c3)C(=O)C2(C)C)ccc1OCCN1C[C@@H](C)N(CC(=O)Nc2cc(F)cc(NC3CCC(=O)NC3=O)c2)[C@@H](C)C1 (stereo partly drawn) [Example 251, 2-((2S,6R)-4-(2-(4-(3-(3-chloro-4-cyanophenyl)-5,5-dimethyl-4-oxo-2-thioxoimidazolidin-1-yl)-2-isopropylphenoxy)ethyl)-2,6-dimethylpiperazin-1-yl)-N-(3-(2,6-dioxopiperidin-3-ylamino)-5-fluorophenyl)acetamide] | * (0<Y<=25%) | < 100 nM
C[C@@H]1CN(CCOc2ccc(N3C(=S)N(c4ccc(C#N)c(C(F)(F)F)c4)C(=O)C3(C)C)cc2C(C)(F)F)C[C@H](C)N1CC(=O)Nc1cccc(NC2CCC(=O)NC2=O)c1 (stereo partly drawn) [Example 252, 2-((2S,6R)-4-(2-(4-(3-(4-cyano-3-(trifluoromethyl)phenyl)-5,5-dimethyl-4-oxo-2-thioxoimidazolidin-1-yl)-2-(1,1-difluoroethyl)phenoxy)ethyl)-2,6-dimethylpiperazin-1-yl)-N-(3-(2,6-dioxopiperidin-3-ylamino)phenyl)acetamide] | * (0<Y<=25%) | < 100 nM
Cc1cc(OCCN2C[C@@H](C)N(CC(=O)Nc3cccc(NC4CCC(=O)NC4=O)c3)[C@@H](C)C2)c(C(C)C)cc1N1C(=S)N(c2ccc(C#N)c(C(F)(F)F)c2)C(=O)C1(C)C (stereo partly drawn) [Example 253, 2-((2S,6R)-4-(2-(4-(3-(4-cyano-3-(trifluoromethyl)phenyl)-5,5-dimethyl-4-oxo-2-thioxoimidazolidin-1-yl)-2-isopropyl-5-methylphenoxy)ethyl)-2,6-dimethylpiperazin-1-yl)-N-(3-(2,6-dioxopiperidin-3-ylamino)phenyl)acetamide] | * (0<Y<=25%) | 100 to 500 nM
CCc1cc(N2C(=S)N(c3ccc(C#N)c(C(F)(F)F)c3)C(=O)C2(C)C)c(C)cc1OCCN1C[C@@H](C)N(CC(=O)Nc2cccc(NC3CCC(=O)NC3=O)c2)[C@@H](C)C1 (stereo partly drawn) [Example 254, 2-((2S,6R)-4-(2-(4-(3-(4-cyano-3-(trifluoromethyl)phenyl)-5,5-dimethyl-4-oxo-2-thioxoimidazolidin-1-yl)-2-ethyl-5-methylphenoxy)ethyl)-2,6-dimethylpiperazin-1-yl)-N-(3-(2,6-dioxopiperidin-3-ylamino)phenyl)acetamide] | * (0<Y<=25%) | < 100 nM
C[C@@H]1CN(CCOc2ccc(N3C(=S)N(c4cnc(C#N)c(C(F)(F)F)c4)C(=O)C3(C)C)cc2C(C)(F)F)C[C@H](C)N1CC(=O)Nc1cccc(NC2CCC(=O)NC2=O)c1 (stereo partly drawn) [Example 255, 2-((2S,6R)-4-(2-(4-(3-(6-cyano-5-(trifluoromethyl)pyridin-3-yl)-5,5-dimethyl-4-oxo-2-thioxoimidazolidin-1-yl)-2-(1,1-difluoroethyl)phenoxy)ethyl)-2,6-dimethylpiperazin-1-yl)-N-(3-(2,6-dioxopiperidin-3-ylamino)phenyl)acetamide] | * (0<Y<=25%) | < 100 nM
